{
  "source": "patent US10690673B2",
  "about": "“Method of treating cancer metastasis by CDK 4/6 inhibitors” (Mayo Foundation for Medical Education and Research, priority 2016, dated 2020)",
  "key": {"SNAIL1 polypeptide": {"test_system": "SNAIL1 polypeptide", "assay": "SNAIL1 polypeptide level by Western blotting in breast cancer cells", "format": "cell-based, human", "settings": "for SNAIL1 polypeptide level: 0, 3, 6, or 9 μM for 18 hours", "procedure": "FIG. 3. DUB3 deubiquitinates and stabilizes SNAIL1. (A) Cell extracts were prepared from 4 luminal and 4 basal like subtypes of human breast cancer cell lines, and expression of SNAIL1, DUB3, E-cadherin and vimentin was analyzed by Western blotting. (B) MDA-MB-231 cells stably expressing control or DUB3 shRNAs were generated and Western blot was performed with the indicated antibodies. (C) Total RNA was isolated from cells in (B). mRNAs encoding SNAIL and β-actin were determined by reverse transcription-polymerase chain reaction (RT-PCR) and agarose gel electrophoresis. (D) MDA-MB-231 cells stably expressing control or DUB3 shRNAs were treated with vehicle or MG-132 (10 μM) for 1 hour and Western blot was performed with the indicated antibodies. (E-F) T47D and MCF-7 cells were infected with virus containing vector (“V”), FLAG-DUB3 (“WT”) and the C89S (“CS”) mutant, and Western blots were performed. (F) CHX pulse-chase assay was performed in cells. (G) Cells were cotransfected with indicated plasmids and treated with MG132 for 6 hours before cell lysates were boiled and immunoprecipitated with HA beads, and the polyubiquitylated SNAIL1 polypeptide was detected by an anti-ubiquitin antibody. (H) Cells were transfected with HA-SNAIL1 and treated with MG132 for 6 hours. Cell lysates were boiled and immunoprecipitated with HA beads and incubated with GST, GST-DUB3 or GST-DUB3 C89S mutant. The polyubiquitylated SNAIL1 polypeptide was detected by an anti-ubiquitin antibody.\nFIG. 10. Ser41 phosphorylation regulates DUB3 activity. (A) Cells transfected with indicated constructs were lysed and co-immunoprecipitations experiments were performed using anti-FLAG antibody. The immunoprecipates were eluted by FLAG-peptide containing buffer and the activities of DUB3 were assayed using Ubiquitin-AMC (Ub-AMC) as a substrate. (B) The eluates were detected with anti-FLAG antibody. (C) MDA-MB-231 cells were treated with either vehicle or […] for indicated periods. Western blotting was performed with indicated antibodies.\nFIG. 11. Phosphorylation of Ser41 regulates DUB3 activity. (A) Cells were cotransfected with indicated plasmids and treated with vehicle or CDK 4/6 inhibitor (PD0332991 10 μM). Cell lysates were boiled and immunoprecipitated with HA beads and immunoblotted as indicated. […] (G) The migratory abilities of cells were analyzed by a wound healing assay. […] After 12 weeks, mice were sacrificed and the development of lung metastases was determined by counting and quantifying lung metastatic nodules.\nFIG. 14. […] (B) MDA-MB-231 cells were treated with vehicle or LY2835219 and the migration ability of cells was measured by a wound healing assay. […] (D) HCC1806 cells were treated with vehicle or LY2835219 and the migration ability of cells was measured by a wound healing assay. […]"}, "[1]": {"test_system": "human breast tumor biopsy sample HCI001", "assay": "Patient-derived xenograft (PDX) model of triple negative breast cancer, tumor growth and metastasis", "format": "in vivo, mice", "settings": "100 mg/kg daily, PO, five weeks; saline group 6/8; significantly decreased", "procedure": "FIG. 13. CDK 4/6 inhibition inhibits cancer metastasis. (A) DUB3 and SNAIL1 polypeptide levels in a subset of human breast tumor biopsy samples were examined. (B) Passage 3 tumors from HCI001 were used to test the effect of PD0332991 on metastasis. When primary tumors reached 100-150 mm^3, mice were randomized and treated either with saline or PD0332991 for five weeks (n=8). Tumor weights were measured after mice were sacrificed (B). Tumor volumes were measured every week (C). After mice were sacrificed, liver (D-F) and lung (G-I) metastatic nodules were examined macroscopically or detected in paraffin-embedded sections stained with H&E. (J) The working model to illustrate that CDK 4/6 phosphorylation-dependent activation of DUB3 regulates EMT and metastasis through SNAIL1.\nThe results provided herein indicate that DUB3 stabilizes SNAIL1 polypeptide through deubiquitinating SNAIL1 and CDK 4/6 activity is involved in SNAIL1 stabilization. […] DUB3 and SNAIL1 levels were detected and correlated in a subset of human breast cancer samples from the BEAUTY project (FIG. 13A). […]\nA patient-derived xenograft model was generated from an estrogen receptor-negative, progesterone receptor-negative, human epidermal growth factor receptor 2-negative (ER^−PR^−_HER2^−) high-grade invasive ductal carcinoma. […] Tumor volumes were measured once per week. […] Data were analyzed using Student's t test. […]"}, "[2]": {"test_system": "phosphorylation of DUB3 at Ser41", "assay": "Phosphorylation of DUB3 at Ser41 in transfected cells (anti-FLAG immunoprecipitation, Western blotting)", "format": "cell-based", "settings": "cells transfected with FLAG-DUB3 WT", "procedure": "FIG. 8. CDK 4/6 phosphorylates DUB3 at Ser 41. (A) DUB3 phosphorylation sites were analyzed by mass spectrometry. If the Ascore values for Ascore Seq_A are above 19, then the location is considered confidently assigned (indicated with pink cell backgrounds). (B) Cells were transfected with indicated plasmids and cell lysates were subjected to immunoprecipitation with an anti-FLAG antibody and Western blotting was performed. (C) Cells were transfected with indicated plasmids and were treated with vehicle, or pan-CDK inhibitor (Roscovitine 5 μM) or CDK 4/6 inhibitor (PD0332991 10 μM). The phosphorylation of Ser41 was examined. (D) CDK 4/6 phosphorylates DUB3 in vitro. Bacterially expressed GST and GST-DUB3 fusion polypeptides were incubated with active CDK4 or CDK6 in the presence of [γ-32P]ATP. Polypeptides were resolved by SDS-PAGE, and phosphorylated polypeptides were visualized with autoradiography. (E) Vector or FLAG-DUB3 were transfected in cells stably expressing indicated shRNA. The phosphorylation of Ser41 in DUB3 was then examined.\nFIG. 15. CDK1 phosphorylates DUB3 at Ser41 in vitro, and the treatment of pan-CDK inhibitor Roscovitine decreased phosphorylation of DUB3. (A) Bacterially-expressed GST-DUB3 WT and GST-DUB3 S41A fusion polypeptides were incubated with active CDK4, CDK6, CDK1, or CDK2 in the presence of [γ-^32P]ATP. […]"}},
  "note": "Where a SMILES comes first, the peptide text is derived from it. The star is where a group is joined. Cbz = O=C(OCc1ccccc1)*",
  "data": [
    {"smiles": "Nc1nc(N)c(N=O)c(OCC2CCCCC2)n1", "note": "[DU6027]", "values": [
      {"measurement": "SNAIL1 polypeptide level", "setting": "SNAIL1 polypeptide; BT549 cells, FIG. 16", "result": "decreases"},
      {"measurement": "SNAIL1 polypeptide level", "setting": "SNAIL1 polypeptide; MDA-MB-231 cells, FIG. 17", "result": "decreases"}
    ]},
    {"smiles": "CC(C)C[C@@H](C=O)NC(=O)[C@H](CC(C)C)NC(=O)[C@H](CC(C)C)NC(=O)OCc1ccccc1", "note": "[MG-132] (Cbz-Leu-Leu-Leu-aldehyde)", "values": [
      {"measurement": "effect on decreased SNAIL1 polypeptide level in cells depleting DUB3", "setting": "SNAIL1 polypeptide; MDA-MB-231 cells stably expressing DUB3 shRNAs, MG-132 10 μM for 1 hour, FIG. 3D", "result": "rescue"},
      {"measurement": "effect on PD0332991-induced reduction of SNAIL1 polypeptide level", "setting": "SNAIL1 polypeptide; MDA-MB-231 cells, PD0332991 in the presence of MG-132, FIG. 11D", "result": "reversed"}
    ]},
    {"smiles": "CC(=O)c1c(C)c2cnc(Nc3ccc(N4CCNCC4)cn3)nc2n(C2CCCC2)c1=O", "note": "[PD0332991, Palbociclib]", "values": [
      {"measurement": "liver metastasis (mice with metastasis / mice in group)", "setting": "[1]", "result": "1/8"},
      {"measurement": "lung metastasis (mice with metastasis / mice in group)", "setting": "[1]", "result": "2/8"}
    ]},
    {"smiles": "CC[C@H](CO)Nc1nc(NCc2ccccc2)c2ncn(C(C)C)c2n1", "note": "[Roscovitine]", "values": [
      {"measurement": "phosphorylation of DUB3 at Ser41", "setting": "[2]; Example 11, FIG. 15B, concentration not given", "result": "dramatically reduced"},
      {"measurement": "phosphorylation of DUB3 at Ser41", "setting": "[2]; Roscovitine 5 μM, FIG. 8C", "result": "dramatically reduced"}
    ]}
  ]
}
